What was measured:
[1] = target: T1, PAR2 (HT-29 cells, SLIGKV activation) (Homo sapiens, UniProt P55085); test: Ca FLIPR TETRA assay, ANTAGONIST mode, stimulation with 8 μM SLIGKV; format: cell-based; conditions: HT-29 cells, antagonist mode, stimulation with 8 μM SLIGKV
T1 construct: host or cells: HT-29 cells
T1 sequence (P55085 26-397): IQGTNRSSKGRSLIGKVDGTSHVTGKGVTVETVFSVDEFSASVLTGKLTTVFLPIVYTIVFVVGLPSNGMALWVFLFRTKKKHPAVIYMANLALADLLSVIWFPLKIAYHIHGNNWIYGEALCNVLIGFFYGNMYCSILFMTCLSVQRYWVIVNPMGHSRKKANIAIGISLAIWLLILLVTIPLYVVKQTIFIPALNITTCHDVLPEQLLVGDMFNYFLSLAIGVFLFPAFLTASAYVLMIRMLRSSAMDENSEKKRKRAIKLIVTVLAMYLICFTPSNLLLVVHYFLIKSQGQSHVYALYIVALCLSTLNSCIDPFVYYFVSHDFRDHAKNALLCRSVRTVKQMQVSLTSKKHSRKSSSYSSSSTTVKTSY
Summary of the method: (§1)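 HT-29 cells in 1% FBS/McCoy's overnight, loaded with Calcium 5 dye; compounds added and read first for intrinsic Ca2+ activation, then incubated 30 min at r.t. Antagonism read on FLIPR Tetra after stimulation with final 8 μM SLIGKV, 3.1 U/mL trypsin, 1 U/mL thrombin or 0.6 μM UTP.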

[2] = target: T2, PAR2 (HT-29 cells, trypsin activation) (Homo sapiens, UniProt P55085); test: Ca FLIPR TETRA assay, ANTAGONIST mode, stimulation with 3.1 U/mL trypsin; format: cell-based; conditions: HT-29 cells, antagonist mode, stimulation with 3.1 U/mL trypsin
T2 construct: host or cells: HT-29 cells
T2 sequence (P55085 26-397): T1 sequence (P55085 26-397)
Summary of the method: as §1

[3] = tested on: Thrombin-stimulated Ca2+ response in HT-29 cells; test: Ca FLIPR TETRA assay, ANTAGONIST mode, stimulation with 1 U/mL Thrombin; format: cell-based, human; conditions: Homo sapiens; HT-29 cells, antagonist mode, stimulation with 1 U/mL Thrombin
Summary of the method: as §1

[4] = tested on: UTP-stimulated Ca2+ response in HT-29 cells; test: Ca FLIPR TETRA assay, ANTAGONIST mode, stimulation with 0.6 μM UTP; format: cell-based, human; conditions: Homo sapiens; HT-29 cells, antagonist mode, stimulation with 0.6 μM UTP
Summary of the method: as §1

| SMILES | IC50 [1] [nM] | IC50 [2] [nM] | IC50 [3] [nM] | IC50 [4] [nM] |
| --- | --- | --- | --- | --- |
| CC(C)c1cc(-c2ccc(C(F)(F)F)cc2)nn2cc(C(=O)N3CCN(C(=O)c4cccnn4)CC3(C)C)nc12 [Compound I-282] | 16 | 14.2 | > 1000 | > 1000 |
| CC(C)c1cc(-c2ccc(C(F)F)cc2)nn2cc(C(=O)N3CCN(C(=O)c4nc[nH]n4)CC3(C)C)nc12 [Compound I-294] | 8.8 | 13.7 | > 1000 | > 1000 |
| CC(C)c1cc(-c2ccc(C(F)F)cc2)nn2cc(C(=O)N3CCN(C(=O)c4cn[nH]c4)CC3(C)C)nc12 [Compound I-295] | 7.5 | 8.3 | > 1000 | > 1000 |
| CC(C)(C)c1cc(-c2ccc(F)cc2)nn2cc(C(=O)N3CCN(C(=O)c4nnn[nH]4)CC3(C)C)nc12 [Compound I-296] | 32 | 44.7 | > 1000 | > 1000 |
| CC(C)(C)c1cc(-c2ccc(F)cc2)nn2cc(C(=O)N3CCN(C4(CO)CC4)C(=O)C3(C)C)nc12 [Compound I-297] | 9.1 | 12.7 | 300 | > 1000 |
| Cc1nnc(C(=O)N2CCN(C(=O)c3cn4nc(-c5ccc(C(F)F)cc5)cc(C(C)C)c4n3)C(C)(C)C2)o1 [Compound I-299] | 37.3 | 53 | > 1000 | > 1000 |
| CC(C)c1cc(-c2ccc(C(F)F)cc2)nn2cc(C(=O)N3CCNC(=O)C3(C)C)nc12 [Compound I-300] | 27.7 | 26.5 | > 1000 | > 1000 |
| Cc1c[nH]nc1C(=O)N1CCN(C(=O)c2cn3nc(-c4ccc(F)cc4)cc(C(C)C)c3n2)C(C)(C)C1 [Compound I-302] | 10.3 | 13 | 1100 | 900 |
| Cc1n[nH]cc1C(=O)N1CCN(C(=O)c2cn3nc(-c4ccc(F)cc4)cc(C(C)C)c3n2)C(C)(C)C1 [Compound I-304] | 40.3 | 54.3 | > 1000 | > 1000 |
| CC(C)c1cc(-c2ccc(F)cc2)nn2cc(C(=O)N3CCN(C(=O)CC(C)(C)O)CC3(C)C)nc12 [Compound I-305] | 33 | 45 | > 1000 | > 1000 |
| CC(C)c1cc(-c2ccc(F)cc2)nn2cc(C(=O)N3CCN(C(=O)c4ccnnc4)CC3(C)C)nc12 [Compound I-306] | 68 | 185 | > 1000 | > 1000 |
| CC(C)c1cc(-c2ccc(F)cc2)nn2cc(C(=O)N3CCN(C(=O)c4cccnn4)CC3(C)C)nc12 [Compound I-307] | 52.8 | 42 | > 1000 | > 1000 |
| CC(C)c1cc(-c2ccc(F)cc2)nn2cc(C(=O)N3CCN(C(=O)c4ccncc4)CC3(C)C)nc12 [Compound I-308] | 28 | 33.5 | > 1000 | > 1000 |
| CC(C)c1cc(-c2ccc(F)cc2)nn2cc(C(=O)N3CCN(C(=O)c4cccnc4)CC3(C)C)nc12 [Compound I-309] | 17.5 | 19 | > 1000 | > 1000 |
| CC(C)c1cc(-c2ccc(F)cc2)nn2cc(C(=O)N3CCN(C(=O)C(C)(O)C(F)(F)F)CC3(C)C)nc12 (stereo not drawn) [Compound I-313] | 15.2 | 11.4 | > 1000 | > 1000 |
| CC(C)c1cc(-c2ccc(F)cc2)nn2cc(C(=O)N3CCN(C(=O)C(C)(N)C(F)(F)F)CC3(C)C)nc12 (stereo not drawn) [Compound I-314] | 10.4 | 7.6 | > 1000 | > 1000 |
| CC(C)c1cc(-c2ccc(F)cc2)nn2cc(C(=O)N3CCN(C(=O)c4cncnc4)CC3(C)C)nc12 [Compound I-322] | 41.5 | 69 | > 1000 | > 1000 |
| CC(C)c1cc(-c2ccc(F)cc2)nn2cc(C(=O)N3CCN(C(=O)c4ncccn4)CC3(C)C)nc12 [Compound I-323] | 20.5 | 55.5 | > 1000 | > 1000 |
| Cc1nnc(C(=O)N2CCN(C(=O)c3cn4nc(-c5ccc(F)cc5)cc(C(C)C)c4n3)C(C)(C)C2)o1 [Compound I-324] | 21.1 | 22.5 | > 1000 | > 1000 |
| CC(F)(F)c1cc(-c2ccc(F)cc2)nn2cc(C(=O)N3CCNC(=O)C3(C)C)nc12 [Compound I-325] | 55.5 | 110 | > 1000 | > 1000 |
| CC(C)c1cc(-c2ccc(F)cc2)nn2cc(C(=O)N3CCN(C(=O)c4c[nH]cn4)CC3(C)C)nc12 [Compound I-326] | 17 | 12 | > 1000 | > 1000 |

Stronger by IC50 [1], values ahead:

| IC50 [1] [nM] | IC50 [2] [nM] | IC50 [3] [nM] | IC50 [4] [nM] | SMILES |
| --- | --- | --- | --- | --- |
| 2.5 | 3.6 | > 1000 | > 1000 | CC(C)c1cc(-c2ccc(C(F)(F)F)cc2)nn2cc(C(=O)N3CCN(C(=O)c4ccccn4)CC3(C)C)nc12 [Compound I-281] |
| 1 | 1.4 | > 1000 | > 1000 | CC(C)(C)c1cc(-c2ccc(F)cc2)nn2cc(C(=O)N3CCN(C(=O)c4ccccn4)CC3(C)C)nc12 [Compound I-284] |
| 1.8 | 2.6 | 650 | > 1000 | CC(C)(C)c1cc(-c2ccc(F)cc2)nn2cc(C(=O)N3CCN(C(=O)c4ncccn4)CC3(C)C)nc12 [Compound I-285] |
| 2.7 | 3.9 | 840 | > 1000 | CC(C)(C)c1cc(-c2ccc(F)cc2)nn2cc(C(=O)N3CCN(C(=O)c4ccncc4)CC3(C)C)nc12 [Compound I-286] |
| 2 | 2.8 | 630 | 980 | CC(C)(C)c1cc(-c2ccc(F)cc2)nn2cc(C(=O)N3CCN(C(=O)c4cccnc4)CC3(C)C)nc12 [Compound I-287] |
| 1.5 | 2.5 | 430 | 540 | CC(C)(O)CC(=O)N1CCN(C(=O)c2cn3nc(-c4ccc(F)cc4)cc(C(C)(C)C)c3n2)C(C)(C)C1 [Compound I-289] |
| 3.4 | 3.1 | 530 | 730 | Cc1cn[nH]c1C(=O)N1CCN(C(=O)c2cn3nc(-c4ccc(F)cc4)cc(C(C)(C)C)c3n2)C(C)(C)C1 [Compound I-290] |
| 2.4 | 2.2 | > 1000 | > 1000 | Cc1n[nH]cc1C(=O)N1CCN(C(=O)c2cn3nc(-c4ccc(F)cc4)cc(C(C)(C)C)c3n2)C(C)(C)C1 [Compound I-292] |
| 6.6 | 9.4 | > 1000 | > 1000 | CC(C)c1cc(-c2ccc(C(F)F)cc2)nn2cc(C(=O)N3CCN(C(=O)c4ccn[nH]4)CC3(C)C)nc12 [Compound I-293] |
| 2.3 | 1.8 | > 1000 | > 1000 | Cc1ccc(-c2cc(C(C)(C)C)c3nc(C(=O)N4CCNC(=O)C4(C)C)cn3n2)cc1F [Compound I-298] |
| 3 | 3 | > 1000 | > 1000 | Cc1ccc(-c2cc(C(C)C)c3nc(C(=O)N4CCNC(=O)C4(C)C)cn3n2)cc1F [Compound I-301] |
| 6.8 | 4.1 | > 1000 | > 1000 | Cc1nc[nH]c1C(=O)N1CCN(C(=O)c2cn3nc(-c4ccc(F)cc4)cc(C(C)(C)C)c3n2)C(C)(C)C1 [Compound I-311] |
| 1.3 | 1.3 | > 1000 | > 1000 | Cc1ncc(C(=O)N2CCN(C(=O)c3cn4nc(-c5ccc(F)cc5)cc(C(C)(C)C)c4n3)C(C)(C)C2)[nH]1 [Compound I-312] |
| 3.4 | 2.9 | > 1000 | > 1000 | CC(C)(C)c1cc(-c2ccc(F)cc2)nn2cc(C(=O)N3CCN(C(=O)C(C)(O)C(F)(F)F)CC3(C)C)nc12 (stereo not drawn) [Compound I-317] |
| 1.7 | 2.2 | > 1000 | > 1000 | CC(C)(C)c1cc(-c2ccc(F)cc2)nn2cc(C(=O)N3CCN(C(=O)C(C)(N)C(F)(F)F)CC3(C)C)nc12 (stereo not drawn) [Compound I-318] |
| 0.4 | 0.6 | 760 | 950 | CC(C)(C)c1cc(-c2ccc(F)cc2)nn2cc(C(=O)N3CCN(C(=O)[C@H]4C[C@@](C)(O)C4)CC3(C)C)nc12 [Compound I-319] |
| 7.1 | 14.2 | > 1000 | > 1000 | CC(C)c1cc(-c2ccc(F)cc2)nn2cc(C(=O)N3CCN(C(=O)c4ccccn4)CC3(C)C)nc12 [Compound I-320] |
| 1.5 | 2.8 | > 1000 | > 1000 | CC(C)c1cc(-c2ccc(F)cc2)nn2cc(C(=O)N3CCN(C(=O)c4ccon4)CC3(C)C)nc12 [Compound I-321] |

Reference: patent US20190119282A1, “IMIDAZOPYRIDAZINES USEFUL AS INHIBITORS OF THE PAR-2 SIGNALING PATHWAY” (Vertex Pharmaceuticals Incorporated, priority 2013, published 2019)
